The source of these data is publication PMC3176258, “A genomic biomarker signature can predict skin sensitizers using a cell-based in vitro alternative to animal tests” (BMC Genomics, 2011).

Converted amounts (≈) assume the structure as drawn. Read-outs that look alike come from different tables or passages of the source.

In data set [1] the test system is MUTZ-3 cells. Nature of the data set: CD86 cell surface expression by flow cytometry after 24 h stimulation. It counts as cell-based, human. The note with it: for CD86 surface expression: flow cytometry, Student's t test. The method, then: CD86 is the most extensively studied biomarker for sensitization to date, using e.g. monocyte derived dendritic cells (MoDCs) or human cell lines and their progenitors, such as THP-1, U-937 and KG-1. Thus, as a reference, cell surface expression of CD86 was measured with flow cytometry after 24 h stimulation, using 20 sensitizers and 20 non-sensitizers, as well as vehicle controls (Figure 2). […]. […] Consequently, CD86 cannot classify skin sensitizers, using a system based on MUTZ-3 cells.
No differentiating steps were performed. […] Thereafter, cells were harvested and analyzed by flow cytometry.
All cell surface staining and washing steps were performed in PBS containing 1% BSA (w/v). Cells were incubated with specific mouse mAbs for 15 min at 4°C. The following mAbs were used for flow cytometry: FITC-conjugated CD1a (DakoCytomation, Glostrup, Denmark), CD34, CD86, and HLA-DR (BD Biosciences), PE-conjugated CD14 (DakoCytomation), CD54 and CD80 (BD Biosciences). Mouse IgG1, conjugated to FITC or PE were used as isotype controls (BD Biosciences) and PI was used to assess cell viability. FACSDiva software was used for data acquisition with FACSCanto II instrument (BD Bioscience). 10,000 events were acquired and gates were set based on light scatter properties to exclude debris and nonviable cells. Further data analysis was performed using FCS Express V3 (De Novo Software, Los Angeles, CA).
(In flow cytometry, cells or beads pass a laser one at a time.)

The subject of data set [2] is MUTZ-3 cells. Nature of the data set: Transcriptional profiling (Affymetrix Human Gene 1.0 ST arrays, PCA) after 24 h stimulation. The format is cell-based. Conditions: for Potency predicted by Prediction Signature gene expression profile: 200 transcripts, PCA, compared with LLNA potency, Figure 4C.
Data set [3] deals with MUTZ-3 cells. The experiment in a line: Cytotoxicity by propidium iodide, relative viability. The protocol:
A panel of 40 chemical compounds, consisting of 20 sensitizers and 20 non-sensitizers were used for cell stimulations. […] All chemicals were from Sigma-Aldrich, St. Louis, MO, USA. Compounds were dissolved in either dimethyl sulfoxide (DMSO) or distilled water. Prior to stimulations, the cytotoxicity of all compounds was monitored, using propidium iodide (PI) (BD Biosciences, San Diego, CA) using protocol provided by the manufacturer. The relative viability of stimulated cells was calculated as [drawing 1]
For toxic compounds, the concentration yielding 90% relative viability (Rv90) was used. For non-toxic compounds, a concentration of 500 μM was used. For non-toxic compounds that were insoluble at 500 μM in medium, the highest soluble concentration was used. For compounds dissolved in DMSO, the final concentration of DMSO in each well was 0.1%.
The human myeloid leukemia-derived cell line MUTZ-3 (DSMZ, Braunschweig, Germany) was maintained in α-MEM (Thermo Scientific Hyclone, Logan, UT) supplemented with 20% (volume/volume) fetal calf serum (Invitrogen, Carlsbad, CA) and 40 ng/ml rhGM-CSF (Bayer HealthCare Pharmaceuticals, Seattle, WA), as described. Cultures were maintained at 200.000 cells/ml during expansion, with a media change every 3-4 days. No differentiating steps were performed. Instead, the proliferating progenitor MUTZ-3 was used for stimulations, as delivered by the supplier. Prior to each experiment, the cells were immunophenotyped using flow cytometry as a quality control. Cells were seeded in 6-well plates at 200.000 cells/ml. Stock solutions of each compound were prepared in either DMSO or distilled water, and were subsequently diluted so the in-well concentrations corresponded to the Rv90 value, and in-well concentrations of DMSO were 0.1%. Cells were incubated for 24 h at 37°C and 5% CO2. Thereafter, cells were harvested and analyzed by flow cytometry. In parallel, harvested cells were lysed in TRIzol reagent (Invitrogen) and stored at -20°C until RNA extraction. Stimulations with chemicals were performed in three individual experiments, so that triplicates samples were obtained.

The test system of data set [4] is mice. The note with it: cited from earlier work.
Data set [5] can be described thus: physchem. Conditions: aqueous buffer, kinetic from dmso stock.
Data set [6] can be described thus: Max solubility in medium. The note with it: aqueous buffer, kinetic from dmso stock.
The mark [7] stands for this setting: 1137 genes, multi-group ANOVA, Figure 3D.
Where [8] appears, read: concentration yielding 90% relative viability, propidium iodide.
Where [9] appears, read: sensitizing potency category according to LLNA, ref (14, 15, 45-48).
Where [10] appears, read: 1010 transcripts, one-way ANOVA, one or more replicate, Figure 3B.

In the case of `O=[N+]([O-])c1ccc(Cl)c([N+](=O)[O-])c1` [2,4-Dinitrochlorobenzene], the CD86 surface expression result in data set [1] is reported as “significantly up-regulated”. Also, in data set [2] (setting [7]), the “PCA grouping, each individual stimulation” value is given as “group together, separate from the negative group”. The same compound came in with a Rv90 in data set [3] (setting [8]) of 4 µM. Besides, the Potency entry in data set [4] (mouse, in vivo) is “Extreme [15]”.
For `Nc1ccccc1O` [2-Aminophenol], the CD86 surface expression entry in data set [1] is listed as “significantly up-regulated”. In data set [1] (one representative experiment out of three, Figure 2A), the “frequency of CD86-positive cells” value came to 60.4%. Besides, in data set [2], the “PCA grouping, each individual stimulation” value is “group together, separate from the negative group”. In addition, the Rv90 in data set [3] (setting [8]) worked out at 100 µM. In addition, the Potency result in data set [4] (mouse, in vivo) is “Strong [46]”.
Consider `C=CC(=O)OCCO` [2-Hydroxyethyl acrylate], for which the CD86 surface expression result in data set [1] is reported as “significantly up-regulated”. Moreover, in data set [2], the “Potency predicted by Prediction Signature gene expression profile” value (from here on “Potency predicted”) is “showed resemblance to strong and extreme sensitizers”. The “PCA grouping, each individual stimulation” value in data set [2] (setting [7]) is recorded as “group together, separate from the negative group”. This compound also returned a Rv90 in data set [3] (setting [8]) of 100 µM.
`Sc1nc2ccccc2s1` [2-Mercaptobenzothiazole]: in data set [1], the CD86 surface expression entry is “significantly up-regulated”. Also, the “PCA grouping, each individual stimulation” value in data set [2] (setting [7]) is on record as “group together, separate from the negative group”. In data set [5], the solubility (usually the dissolved amount per volume that the medium holds) turned out to be 250 µM (≈ 41.8 µg/mL). The Potency result in data set [4] (setting [9]) is “Moderate [46]”.
Take `Nc1ccc(N)c([N+](=O)[O-])c1` [2-nitro-1,4-Phenylendiamine]: the CD86 surface expression result in data set [1] is “significantly up-regulated”. Also, the “PCA grouping, each individual stimulation” value in data set [2] (setting [7]) was “group together, separate from the negative group”.
Regarding `O=Cc1ccccc1` [Benzaldehyde], the concentration in solution in data set [5] (solubility) was 250 µM (≈ 26.5 µg/mL).
For `Clc1ccccc1` [Chlorobenzene], the concentration in solution in data set [6] (solubility) came to 98 µM (≈ 11 µg/mL).
In the case of `O=C/C=C/c1ccccc1` [Cinnamaldehyde], the CD86 surface expression result in data set [1] is given as “significantly up-regulated”. For the same compound, the Rv90 in data set [3] (setting [8]) stood at 120 µM. Moreover, the Potency entry in data set [4] (setting [9]) was “Moderate [47]”.
With `OC/C=C/c1ccccc1` [Cinnamic alcohol], the “PCA grouping, each individual stimulation” value in data set [2] (setting [7]) is “group together, separate from the negative group”. In addition, in data set [5], the concentration in solution (solubility) was 500 µM (≈ 67.1 µg/mL). The Potency entry in data set [4] (setting [9]) is “Weak [46]”.
For `NCCN` [Ethylendiamine], the “Potency predicted” value in data set [2] was “grouped together with weak sensitizers”. Moreover, the “PCA grouping, sensitizing vs. non-sensitizing chemicals” value in data set [2] (setting [10]) is “grouped together with the control group”. Also, the Potency entry in data set [4] (mouse, in vivo) was “Moderate [14]”.
Regarding `C=CCc1ccc(O)c(OC)c1` [Eugenol], in data set [2] (setting [10]), the “PCA grouping, sensitizing vs. non-sensitizing chemicals” value is “grouped together with the control group”. This compound also gave a Rv90 in data set [3] (human, 24 h) of 300 µM. In data set [4] (mouse, in vivo), the Potency result was “Weak [47]”.
Consider `C=O` [Formaldehyde], for which the “PCA grouping, each individual stimulation” value in data set [2] is “group together, separate from the negative group”. The Rv90 in data set [3] was 80 µM. In addition, the Potency entry in data set [4] (mouse, in vivo) was “Strong [15]”.
For `O=CC=O` [Glyoxal], the “Potency predicted” value in data set [2] is given as “grouped together with weak sensitizers”. In addition, the “PCA grouping, sensitizing vs. non-sensitizing chemicals” value in data set [2] (setting [10]) is given as “grouped together with the control group”. The same compound displayed a Rv90 in data set [3] of 300 µM. Also, in data set [4] (mouse, in vivo), the Potency entry was “Moderate [46]”.
In the case of `CCCCCCC(C=O)=Cc1ccccc1` [Hexylcinnamic aldehyde], the “Potency predicted” value in data set [2] is “grouped together with weak sensitizers”. Also, the “PCA grouping, sensitizing vs. non-sensitizing chemicals” value in data set [2] (setting [10]) is listed as “grouped together with the control group”. This compound also gave a solubility in data set [5] of 32.3 µM (≈ 7 µg/mL). In addition, the Potency result in data set [4] (setting [9]) was “Moderate [15]”.
With `CCCCCCCC(=O)O` [Octanoic acid], in data set [2] (setting [10]), the “PCA grouping, sensitizing vs. non-sensitizing chemicals” value was “grouped closely with the sensitizers”.
In the case of `CCO/C=C1\N=C(c2ccccc2)OC1=O` [Oxazolone], the Potency result in data set [4] (mouse, in vivo) is “Extreme [15]”.
With `CC1(C)S[C@@H]2[C@H](NC(=O)Cc3ccccc3)C(=O)N2[C@H]1C(=O)O` [Penicillin G], in data set [2] (setting [10]), the “PCA grouping, sensitizing vs. non-sensitizing chemicals” value was “grouped together with the control group”.
For the compound `Oc1ccccc1` [Phenol], the “PCA grouping, sensitizing vs. non-sensitizing chemicals” value in data set [2] was “grouped closely with the sensitizers”.
Take `[K+].[K+].[O]=[Cr](=[O])([O-])[O][Cr](=[O])(=[O])[O-]` [Potassium dichromate]: the CD86 surface expression entry in data set [1] is “significantly up-regulated”. For the same compound, in data set [2], the “PCA grouping, each individual stimulation” value is “discrete profile”. For the same compound, in data set [4] (mouse, in vivo), the Potency result is “Extreme [14]”.
Take `Oc1cccc(O)c1` [Resorcinol]: the CD86 surface expression entry in data set [1] is “significantly up-regulated”. For the same compound, the “PCA grouping, sensitizing vs. non-sensitizing chemicals” value in data set [2] (setting [10]) is reported as “grouped together with the control group”. Besides, in data set [2] (setting [7]), the “PCA grouping, each individual stimulation” value is listed as “group together, separate from the negative group”. Besides, in data set [4] (setting [9]), the Potency result was “Moderate [48]”.
`CCCCCCCCCCCCOS(=O)(=O)[O-].[Na+]` [Sodium dodecyl sulphate] came in with a Rv90 in data set [3] of 200 µM.
For the compound `O=C(O)c1ccc(O)cc1` [p-Hydroxybenzoic acid], in data set [5], the solubility came to 250 µM (≈ 34.5 µg/mL).
Turning to `Nc1ccc(N)cc1` [p-Phenylendiamine], the CD86 surface expression entry in data set [1] was “significantly up-regulated”. In data set [2] (setting [7]), the “PCA grouping, each individual stimulation” value was “group together, separate from the negative group”. The compound further gave a Rv90 in data set [3] of 75 µM. Also, the Potency result in data set [4] (setting [9]) was “Strong [47]”.
In the case of Isoeugenol, the “PCA grouping, sensitizing vs. non-sensitizing chemicals” value in data set [2] (setting [10]) is “grouped together with the control group”.
For the compound Tween 80, in data set [2] (setting [10]), the “PCA grouping, sensitizing vs. non-sensitizing chemicals” value is on record as “grouped closely with the sensitizers”.
